Source: patent US20250282746A1, “HALOGEN-SUBSTITUTED ISOINDOLINE COMPOUND AND USE THEREOF” (CHENGDU FENDI PHARMACEUTICAL CO., LTD., priority 2022, published 2025)
pIC50: −log10 of the molar value. Like-named read-outs stand apart in the source and are kept apart here.

What was measured:
MV-4-11 cells = assay: Antiproliferative activity against MV-4-11 cells (CellTiter-Glo, 72 h); assay type: cell-based; conditions: Homo sapiens
Protocol: MV411 cells in the logarithmic growth phase were diluted in a medium (RPMI+10% FBS) and plated at 5,000 cells/well in 96-well whole black plates (WHB) with 50 μL/well. After plating, the plates were incubated in an incubator at 5% CO2 and 37° C. for 24 h before the compounds were added. The compounds were prepared into a 10 mM stock solution in DMSO and diluted in a culture medium to the desired concentrations (a final DMSO concentration of 0.2%). […] The plates were incubated at 5% CO2 and 37° C. for 72 h. After the incubation was complete, the plates were equilibrated at room temperature for 30 min. CellTiter-Glo® Reagent (Promega G7573) was added at 100 μL/well. The plates were shaken for 12 min on a microplate shaker. The luminescence value was measured at room temperature by the GloMax navigator (Promega GM2010).

GSPT1 protein = biological target: T1, GSPT1 protein (Homo sapiens, UniProt P15170); assay: Degradation of GSPT1 protein in NB-4 cells (Western blot); assay type: cell-based; conditions: for inhibition at 1 µM: read-out: GSPT1 degradation
T1 construct: The whole cell lysate was prepared using a RIPA lysis buffer; endogenous in cells; host or cells: NB-4 cells
Protocol: 150 μL of DMSO and the compounds (1 μM) were added, and the mixture was incubated in an incubator at 5% CO2 and 37° C. for 6 h. The cells were centrifuged, and the culture medium was discarded. PBS was added for washing and then discarded. The whole cell lysate was prepared using a RIPA lysis buffer containing a protease inhibitor cocktail and a phosphatase inhibitor, and incubated on ice for 30 min. The mixture was centrifuged, and the cell debris was discarded. The whole cell lysate supernatant was collected and transferred to a fresh EP tube. Samples were prepared using a loading buffer after a BCA protein assay. The samples were incubated in a metal bath at 100° C. for 10 min.
The samples were electrophoretically separated from proteins on a 4-20% precast gel (SDS-PAGE gel), transferred to a PVDF membrane, blocked with 5% NFDM/TBST for 1 h at room temperature, co-incubated overnight at 4° C. with the primary antibody, and co-incubated for 2 h at room temperature with the secondary antibody on the next day. The signals were detected on the […]™ imaging system.

[1] = MV4-11, MV-4-11 cells, 72 h, read-out: Antiproliferative activity IC50
[2] = MV4-11, 72 h, read-out: Antiproliferative activity IC50

T1 sequence (P15170 whole entry): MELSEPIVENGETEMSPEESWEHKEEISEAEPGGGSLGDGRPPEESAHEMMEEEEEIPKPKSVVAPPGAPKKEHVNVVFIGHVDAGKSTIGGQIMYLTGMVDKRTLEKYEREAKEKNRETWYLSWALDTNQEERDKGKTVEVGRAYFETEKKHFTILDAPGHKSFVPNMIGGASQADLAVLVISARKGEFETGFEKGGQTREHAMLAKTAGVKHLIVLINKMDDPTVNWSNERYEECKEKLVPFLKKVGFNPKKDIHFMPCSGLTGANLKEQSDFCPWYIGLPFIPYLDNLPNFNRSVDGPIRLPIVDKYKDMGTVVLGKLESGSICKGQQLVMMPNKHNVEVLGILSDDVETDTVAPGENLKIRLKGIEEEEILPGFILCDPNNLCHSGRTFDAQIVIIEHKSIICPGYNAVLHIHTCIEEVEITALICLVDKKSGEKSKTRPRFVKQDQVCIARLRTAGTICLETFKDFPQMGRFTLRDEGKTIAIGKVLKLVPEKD

SMILES	pIC50 (MV-4-11 cells; [1])	inhibition at 1 µM (GSPT1 protein; NB-4 cells, compound 1 μM, 6 h)	other results
O=C(Cc1cccc(-c2ccccc2)c1)NCc1ccc2c(c1F)CN(C1CCC(=O)NC1=O)C2=O (stereo not drawn) [FDAB-133]	> 9.00	> 80%	–
CC(C)(C)OC(=O)NCc1cc2c(cc1Cl)C(=O)N(C1CCC(=O)NC1=O)C2 (stereo not drawn) [FDAB-14]	< 6.00	< 25%	–
NCc1ccc2c(c1F)CN(C1CCC(=O)NC1=O)C2=O (stereo not drawn) [FDAB-3]	< 6.00	< 25%	–
O=C(Cc1cc2ccccc2s1)NCc1cc(F)cc2c1CN(C1CCC(=O)NC1=O)C2=O (stereo not drawn) [FDAB-169]	7.00 to 8.00	50 to 80%	–
NS(=O)(=O)c1cc(C(=O)NCc2ccc3c(c2F)CN(C2CCC(=O)NC2=O)C3=O)ccc1Cl (stereo not drawn) [FDAB-115]	< 6.00	< 25%	–
CS(=O)(=O)c1ccc(C(=O)NCc2ccc3c(c2F)CN(C2CCC(=O)NC2=O)C3=O)c(N)c1 (stereo not drawn) [FDAB-114]	< 6.00	< 25%	–
O=C1CCC(N2Cc3c(ccc(CNC(=O)c4ccc(N5CCCC5)cc4)c3F)C2=O)C(=O)N1 (stereo not drawn) [FDAB-110]	> 9.00	> 80%	–
CCCc1ccc(CNCc2ccc3c(c2F)CN(C2CCC(=O)NC2=O)C3=O)cc1 (stereo not drawn) [FDAB-167]	8.00 to 9.00	> 80%	–
CS(=O)(=O)c1ccc(C(=O)NCc2ccc3c(c2F)CN(C2CCC(=O)NC2=O)C3=O)cc1 (stereo not drawn) [FDAB-107]	< 6.00	< 25%	–
NCc1cc(F)c2c(c1)CN(C1CCC(=O)NC1=O)C2=O (stereo not drawn) [FDAB-9]	< 6.00	< 25%	–
O=C(CCCCN1CCCCC1)NCc1ccc2c(c1F)CN(C1CCC(=O)NC1=O)C2=O (stereo not drawn) [FDAB-159]	< 6.00	< 25%	–
O=C1CCC(N2Cc3c(ccc(CNC(=O)c4ccc(Cl)cn4)c3Cl)C2=O)C(=O)N1 (stereo not drawn) [FDAB-80]	< 6.00	< 25%	–
CC(C)OC(=O)OCN1C(=O)CCC(N2Cc3c(ccc(CNC(=O)c4ccc(Cl)cc4)c3F)C2=O)C1=O (stereo not drawn) [FDAB-128]	–	–	pIC50 (MV-4-11 cells; [2]): 7.00 to 8.00; inhibition at 1 µM (GSPT1 protein; NB-4, 6 h): 50 to 80%
CCCCOc1ccc(CC(=O)NCc2ccc3c(c2F)CN(C2CCC(=O)NC2=O)C3=O)cc1 (stereo not drawn) [FDAB-132]	> 9.00	> 80%	–
N#Cc1cc(F)c2c(c1)CN(C1CCC(=O)NC1=O)C2=O (stereo not drawn) [FDAB-7]	< 6.00	< 25%	–
O=C1CCC(N2Cc3c(ccc(CNC(=O)c4ccc(-c5ccccc5)cc4)c3F)C2=O)C(=O)N1 (stereo not drawn) [FDAB-84]	> 9.00	> 80%	–
O=C(Cc1ccc(Cl)cc1Cl)NCc1ccc2c(c1F)CN(C1CCC(=O)NC1=O)C2=O (stereo not drawn) [FDAB-131]	> 9.00	> 80%	–
O=C1CCC(N2Cc3c(ccc(CNC(=O)c4cc5ccccc5o4)c3F)C2=O)C(=O)N1 (stereo not drawn) [FDAB-45]	8.00 to 9.00	> 80%	–
O=C1CCC(N2Cc3cc(CNC(=O)c4ccc(O)cc4)c(F)cc3C2=O)C(=O)N1 (stereo not drawn) [FDAB-28]	< 6.00	< 25%	–
O=C1CCC(N2Cc3c(ccc(CNC(=O)c4ccc(CO)cc4)c3F)C2=O)C(=O)N1 (stereo not drawn) [FDAB-108]	< 6.00	< 25%	–
O=C1CCC(N2Cc3cc(CNC(=O)c4cncs4)c(F)cc3C2=O)C(=O)N1 (stereo not drawn) [FDAB-44]	< 6.00	< 25%	–
O=C1CCC(N2Cc3cc(CNC(=O)c4cc5cc(Cl)ccc5o4)c(Cl)cc3C2=O)C(=O)N1 (stereo not drawn) [FDAB-72]	< 6.00	< 25%	–
NCc1cc(F)cc2c1CN(C1CCC(=O)NC1=O)C2=O (stereo not drawn) [FDAB-17]	6.00 to 7.00	< 25%	–
O=C1CCC(N2Cc3cc(CNC(=O)c4ccncc4)c(F)cc3C2=O)C(=O)N1 (stereo not drawn) [FDAB-31]	< 6.00	< 25%	–

SMILES	pIC50 (MV-4-11 cells; [1])	inhibition at 1 µM (GSPT1 protein; NB-4 cells, compound 1 μM, 6 h)	other results
CCC#CC(=O)NCc1cc2c(cc1F)C(=O)N(C1CCC(=O)NC1=O)C2 (stereo not drawn) [FDAB-63]	< 6.00	< 25%	–
O=C1CCC(N2Cc3c(ccc(CNC(=O)c4ccc(Cl)cc4F)c3F)C2=O)C(=O)N1 (stereo not drawn) [FDAB-117]	8.00 to 9.00	> 80%	–
O=C(CCSC(=S)SCc1ccccc1)NCc1ccc2c(c1F)CN(C1CCC(=O)NC1=O)C2=O (stereo not drawn) [FDAB-161]	> 9.00	> 80%	–
NCc1cc2c(cc1F)C(=O)N(C1CCC(=O)NC1=O)C2 (stereo not drawn) [FDAB-6]	7.00 to 8.00	50 to 80%	–
O=C1CCC(N2Cc3cc(CNC(=O)c4nc5ccccc5s4)c(F)cc3C2=O)C(=O)N1 (stereo not drawn) [FDAB-32]	7.00 to 8.00	> 80%	–
Nc1cccc(C(=O)NCc2cc3c(cc2F)C(=O)N(C2CCC(=O)NC2=O)C3)c1 (stereo not drawn) [FDAB-34]	< 6.00	< 25%	–
O=C1CCC(N2Cc3c(ccc(CNC(=O)c4ccc(Cl)cc4F)c3Cl)C2=O)C(=O)N1 (stereo not drawn) [FDAB-119]	7.00 to 8.00	> 80%	–
O=C1CCC(N2Cc3c(ccc(CNCc4ccc(Oc5ccccc5)cc4)c3F)C2=O)C(=O)N1 (stereo not drawn) [FDAB-166]	–	–	pIC50 (MV-4-11 cells; [2]): 8.00 to 9.00; inhibition at 1 µM (GSPT1 protein; NB-4, 6 h): > 80%
O=C1CCC(N2Cc3c(ccc(CNCc4cc5cc(Cl)ccc5o4)c3F)C2=O)C(=O)N1 (stereo not drawn) [FDAB-165]	8.00 to 9.00	> 80%	–
O=C(C#CC1CC1)NCc1cc2c(cc1F)C(=O)N(C1CCC(=O)NC1=O)C2 (stereo not drawn) [FDAB-64]	6.00 to 7.00	50 to 80%	–
O=C1CCC(N2Cc3cc(CNC(=O)c4ccc(Cl)cc4)c(Cl)cc3C2=O)C(=O)N1 (stereo not drawn) [FDAB-74]	< 6.00	< 25%	–
O=C1CCC(N2Cc3cc(CNC(=O)c4ccc(Cl)cn4)c(F)cc3C2=O)C(=O)N1 (stereo not drawn) [FDAB-56]	< 6.00	< 25%	–
O=C1CCC(N2Cc3c(ccc(CNC(=O)c4ccc5cc6ccccc6cc5c4)c3F)C2=O)C(=O)N1 (stereo not drawn) [FDAB-87]	> 9.00	< 25%	–
O=C(CSc1ccncc1)NCc1ccc2c(c1F)CN(C1CCC(=O)NC1=O)C2=O (stereo not drawn) [FDAB-155]	< 6.00	< 25%	–
O=C1CCC(N2Cc3cc(CNC(=O)c4ccc(Cl)cc4)ccc3C2=O)C(=O)N1 (stereo not drawn) [reference compound]	–	–	pIC50 (MV-4-11 cells; MV4-11, MV-4-11 cells, read-out: IC50 against MV-4-11 cell proliferation): 6.99; degradation of GSPT1 protein (GSPT1 protein; co-incubated for 6 h with NB-4 cells): 65%
O=C1CCC(N2Cc3c(ccc(CNC(=O)c4ccc5c(c4)CC5)c3F)C2=O)C(=O)N1 (stereo not drawn) [FDAB-98]	8.00 to 9.00	> 80%	–
O=C(CCCc1ccc(I)cc1)NCc1ccc2c(c1F)CN(C1CCC(=O)NC1=O)C2=O (stereo not drawn) [FDAB-139]	8.00 to 9.00	> 80%	–
Cc1ccc(C(=O)NCc2cc3c(cc2F)C(=O)N(C2CCC(=O)NC2=O)C3)cc1 (stereo not drawn) [FDAB-51]	7.00 to 8.00	> 80%	–
N#Cc1ccc(NCC(=O)NCc2ccc3c(c2F)CN(C2CCC(=O)NC2=O)C3=O)cc1 (stereo not drawn) [FDAB-149]	< 6.00	< 25%	–
O=C(C#Cc1ccc(Cl)cc1)NCc1ccc2c(c1F)CN(C1CCC(=O)NC1=O)C2=O (stereo not drawn) [FDAB-145]	> 9.00	> 80%	–
O=C1CCC(N2Cc3cc(CNC(=O)c4cc5cc(F)ccc5o4)c(Cl)cc3C2=O)C(=O)N1 (stereo not drawn) [FDAB-73]	< 6.00	< 25%	–
N#Cc1cc(C(=O)NCc2ccc3c(c2Cl)CN(C2CCC(=O)NC2=O)C3=O)ccc1Cl (stereo not drawn) [FDAB-78]	< 6.00	< 25%	–
O=C1CCC(N2Cc3cc(CNC(=O)c4cccc(O)c4)c(F)cc3C2=O)C(=O)N1 (stereo not drawn) [FDAB-36]	< 6.00	< 25%	–
N#Cc1cc2c(cc1F)C(=O)N(C1CCC(=O)NC1=O)C2 (stereo not drawn) [FDAB-4]	< 6.00	< 25%	–
